Results: patent US7091238B1, “Thienylhydrazon with digitalis-like properties (positive inotropic effects)” (University of Maryland, priority 1999, dated 2006)

Experiments:
single muscle fiber [1] = assay: Fatigue development in single amphibian muscle fibers under repetitive tetanic stimulation; assay type: cell-based, frog, rana pipiens
Protocol: FIG. 17. Time course of fatigue development. Fatigue was produced by 60 Hz, 0.8 sec tetanic stimulations repeated every 4.75 sec with a twitch elicited 2.2 sec after each tetanic stimulation. a) single tetanus. b) repeated tetanic stimulations. Notice the time calibration. A) In 50 μM of DMSO only B) Same as in A, but the fiber was bathed with 50 μM of compound LASSBio-294.
FIG. 28. Time (in min) for tetanic force to decrease (fatigue) to 50% of the original tetanic force during repetitive stimulations as in FIG. 17. Left column in 50 μM of DMSO only (˜6 in). Right column in 50 μM of LASSBio-294 (˜9 min).
FIG. 29. Time of recovery to 80% of the pre-fatigue tetanic force. Left column in 50 μM of DMSO only (˜90 min). Right column in 50 μM of LASSBio-294 (˜10 min).
c. […] A is 50 μM DMSO in Ringer's solution, B is 50 μM LASSBio-294. The time to fatigue in LASSBio-294-treated is approximately 50% longer than control.
(§1) The tests in amphibians were performed in isolated single muscle cells freshly isolated from either the semitendinous or the tibialis anterior muscles of the frog, rana pipiens. The isolated muscle cells were left resting for at least half an hour in Ringer's solution. The fibers were then stimulated with single, low-voltage, electric shocks. If fibers gave brisk twitches and had no signs of membrane damage, they were used. Otherwise, they were discarded. Healthy fibers were transferred to the experimental chamber, which consisted of a 0.3 ml narrow channel where the solutions could be changed several times within five seconds. One tendon of the fiber was gripped with a small clamp and the other tendon was attached to a hook of an Ekhart;s type force transducer. The stimulating electrode consisted of platinum wires placed to each side of the fiber. The muscle fibers were stretched 1.3 times their slack length to reach approximately an average sarcomere length of 1.6 μm.
The fibers were stimulated with single electric pulses of 0.5 msec duration and variable voltage. The voltage was increased until the threshold for contraction was reached. […]

single muscle fiber [2] = assay: Twitch tension in single amphibian muscle fibers; assay type: cell-based, frog, rana pipiens
Protocol: FIG. 15. Effect of 12.5 μM of compound 294 on force development in a single muscle fiber stimulated at different frequencies. The frequency of stimulation in Hz is indicated under each trace. Top panel, stimulating cycle done in Ringer without compound 294. Middle panel, stimulating cycle done 17 min after the fiber was bathed with compound 294. Bottom panel, second cycle of stimulation done 17 min after compound 294 was washed out with Ringer. Force calibration bars are 50 mg for twitches and 10 Hz simulations and 100 mg for 30, 60, and 90 Hz.
FIG. 16. Histogram showing the effect of 12.5 μM compound 294 and after washing out LASSBio-294 on fractional twitch tension (Tx/To). Tx represents the twitch tension obtained when the fiber was bathed with the solutions indicated above each column. The order of the columns are the order in which the simulating cycles were performed.
as §1
The fibers were stimulated with single electric pulses of 0.5 msec duration and variable voltage. The voltage was increased until the threshold for contraction was reached. This voltage was then increased by 50% and the experimental protocol started. To find out if LASSBio-294 has an effect on contractility, a stimulating protocol was used consisting of a series of single twitches elicited every 3 sec. followed by different frequencies of tetanic stimulation of 10 Hz, 30 Hz, and 60 Hz. The fibers rested for three minutes between each tetanic stimulation. When the whole series of stimulations were repeated, the fibers rested for 10 min. between each series of twitches and tetanic stimulations. Fatigue was induced by repetitive cycles of electrical stimulation. Each cycle consisted of a train of electric shocks delivered at 60 Hz for 0.8 sec followed by a single twitch after 2.2 sec and repeated every 4.15 sec. […]. […]

particulate PDE 4 = assay: Direct inhibition of particulate PDE 4; assay type: biochemical; settings: rat heart
phosphodiesterase = assay: Phosphodiesterase direct effect; assay type: biochemical
Excerpt: Determination of phosphodiesterase direct effect was also negative.

isolated hearts = assay: Isometric (twitch) tension in isolated hearts under pre-load; set-up: species or system rat; settings: 50 μM in bathing solution; pre-load of 1 g; vs control and wash
Protocol: FIG. 5. Recordings of twitch tension in isolated hearts. Control (top), LASSBio-294 (middle) and wash (bottom).
a Recordings of electrocardiogram (ECG) of isolated rat heart are shown in FIG. 4 which compare control, LASSBio-294 treatment, 10 uM, 50 μM and 100 μM and post-treatment wash. […] FIG. 5 illustrates a test of change in isometric tension induced by LASSBio-294 in isolated hearts under preload. Concentration of LASSBio-294 in the bathing solution is 50 μM, which is half of the highest concentration tested in the ECG tests described in FIG. 4. Hearts were treated under a pre-load of 1 g; control was compared to LASSBio-294 and wash. […] This effect was lost in the wash out period. The pre-load tension test is considered to be an animal model of congestive heart disease. Comparing the effect of drugs with this test is predictive of therapeutic effect of treatment in human congestive heart disease. General Method
Hearts were quickly removed and placed in an aorta retrograde perfusion system for measurement of ECG. Increasing concentrations of LASSBio-294 were added to the bathing solution. The system equilibrated for 5 min. before measurement of isometric tension after each addition.

O=C(NN=Cc1cccs1)c1ccc2c(c1)OCO2 [LASSBio-294, 3,4-methylenedioxybenzoyl-2-thienylhydrazone]
time to fatigue, longer than control (single muscle fiber [1]; 50 μM vs 50 μM DMSO, 60 Hz 0.8 sec tetanic stimulations): approximately 50%
time for tetanic force to decrease (fatigue) to 50% of the original tetanic force (single muscle fiber [1]; 50 μM, repetitive stimulations): ~9 min
resistance to muscle fatigue (single muscle fiber [1]; treated skeletal muscle fibers vs control fibers): increased resistance to muscle fatigue
increase of twitch tension vs control (single muscle fiber [2]; 12.5 μM, second stimulation cycle, 17 min in compound): ~50%
increase of twitch peak tension vs control (single muscle fiber [2]; 12.5 μM, three minutes after bathing): approximately 25%
twitch tension potentiation vs control after wash out (single muscle fiber [2]; 17 min in Ringer after washing away 12.5 μM compound): approximately 77%
twitch force on re-exposure (single muscle fiber [2]; fiber exposed again to 12.5 μM after wash out): decrease in twitch force
direct inhibition of particulate PDE 4 (particulate PDE 4): did not inhibit directly
phosphodiesterase direct effect (phosphodiesterase): negative
isometric tension (isolated hearts): increase in isometric tension compared to control
